Data set [1] has as its system ALDH2. Conditions: read-out: ALDH2 inhibition; cited from earlier work.
Data set [2] concerns cocaine-seeking behavior. Conditions: cited from earlier work.
A short description of data set [3]: High-throughput RLM stability. Format: in vitro ADME. Conditions: rat, rat liver microsomes, pH 7.4. (In general: Microsomes from liver hold many membrane-bound enzymes, among them those of drug oxidation.)
The target of data set [4] is T1, hALDH1A1 (Homo sapiens, UniProt P00352).
T1 sequence (P00352 1-501): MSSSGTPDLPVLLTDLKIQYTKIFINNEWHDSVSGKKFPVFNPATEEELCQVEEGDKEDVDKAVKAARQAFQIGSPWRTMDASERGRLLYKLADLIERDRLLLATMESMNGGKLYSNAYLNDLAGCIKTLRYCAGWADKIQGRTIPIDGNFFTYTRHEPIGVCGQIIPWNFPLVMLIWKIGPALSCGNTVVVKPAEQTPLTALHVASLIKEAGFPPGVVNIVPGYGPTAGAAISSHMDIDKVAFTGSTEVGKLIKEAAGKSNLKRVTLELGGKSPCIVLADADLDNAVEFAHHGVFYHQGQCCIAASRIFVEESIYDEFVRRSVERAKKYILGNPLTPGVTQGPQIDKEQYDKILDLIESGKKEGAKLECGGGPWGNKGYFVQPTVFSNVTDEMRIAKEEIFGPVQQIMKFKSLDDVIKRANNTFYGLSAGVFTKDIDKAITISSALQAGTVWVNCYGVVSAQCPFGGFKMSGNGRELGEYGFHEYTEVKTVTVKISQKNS
Briefly: biochemical.

Data set [5] deals with T2, human ALDH1B1 (Homo sapiens, UniProt P30837).
T2 sequence (P30837 18-517): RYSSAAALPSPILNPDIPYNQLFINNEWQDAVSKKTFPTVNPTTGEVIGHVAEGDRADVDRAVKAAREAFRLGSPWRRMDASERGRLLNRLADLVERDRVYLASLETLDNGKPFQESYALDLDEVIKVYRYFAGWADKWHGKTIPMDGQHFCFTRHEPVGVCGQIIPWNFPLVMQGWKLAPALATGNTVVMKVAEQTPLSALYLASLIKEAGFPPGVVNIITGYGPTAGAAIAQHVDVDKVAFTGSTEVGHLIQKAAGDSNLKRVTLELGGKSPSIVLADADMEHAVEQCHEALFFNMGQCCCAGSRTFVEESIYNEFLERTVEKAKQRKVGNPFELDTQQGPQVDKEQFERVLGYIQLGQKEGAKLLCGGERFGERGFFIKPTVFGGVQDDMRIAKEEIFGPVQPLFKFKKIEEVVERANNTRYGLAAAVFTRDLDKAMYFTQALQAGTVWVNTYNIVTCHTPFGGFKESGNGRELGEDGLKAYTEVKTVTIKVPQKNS
Briefly: biochemical.

Data set [6] deals with T3, human ALDH2 (Homo sapiens, UniProt P05091).
T3 sequence (P05091 18-517): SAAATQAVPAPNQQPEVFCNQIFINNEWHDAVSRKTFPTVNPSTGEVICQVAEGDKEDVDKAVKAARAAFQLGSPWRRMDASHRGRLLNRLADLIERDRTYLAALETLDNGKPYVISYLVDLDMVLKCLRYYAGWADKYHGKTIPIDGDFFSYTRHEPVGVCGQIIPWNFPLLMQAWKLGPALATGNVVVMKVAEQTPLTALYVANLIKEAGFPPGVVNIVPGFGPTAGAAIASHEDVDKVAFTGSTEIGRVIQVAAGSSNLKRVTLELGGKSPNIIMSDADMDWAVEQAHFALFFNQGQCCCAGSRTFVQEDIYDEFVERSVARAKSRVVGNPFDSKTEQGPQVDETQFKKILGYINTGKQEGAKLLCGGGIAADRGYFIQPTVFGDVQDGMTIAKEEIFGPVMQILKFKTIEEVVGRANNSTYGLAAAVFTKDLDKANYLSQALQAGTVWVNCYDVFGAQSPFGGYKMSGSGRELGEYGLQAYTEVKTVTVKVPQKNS
As to the kind of experiment: ALDH enzymatic assay, ALDH2. Format: biochemical.

Data set [7] concerns the target T1, hALDH1A1. As to the kind of experiment: Primary qHTS against hALDH1A1. The format is biochemical. On the technique in general: Quantitative high-throughput screening tests each substance at several concentrations.
A short description of data set [8]: physchem. Conditions: aqueous medium at pH 7.4, pH 7.4, aqueous buffer, kinetic from dmso stock.
The test system of data set [9] is more than 450 human kinases. Briefly: DiscoveRx KINOMEscan off-target kinase profiling. The format is binding. Particulars: 10 µM, hit = inhibition of ≥55%.
For data set [10] the following is noted: microsomes.
Data set [11] can be described thus: Multipoint rat liver microsomal stability. Format: in vitro ADME.
Data set [12] is described as follows: Plasma protein binding. Format: in vitro ADME.
Data set [13] is described as follows: In vitro stability in CD1 mouse plasma. Format: in vitro ADME.
Data set [14] in a line: CD1 mouse liver microsomal stability. Format: in vitro ADME. Particulars: mouse liver microsomes.
The nature of data set [15]: Caco-2 permeability. Conditions: human. The format is in vitro ADME. In general terms: Caco-2 monolayers are a common model of the intestinal barrier.
Data set [16] is described as follows: Pharmacokinetics in CD1 mice. The format is in vivo. Conditions: CD1, mouse.
Data set [17] relates to 168 GPCRs covering 60 receptor families. As to the kind of experiment: gpcrMAX panel profiling. Format: cell-based. Conditions: agonist and antagonist mode.

The values below come from article PMC5185321 (Journal of medicinal chemistry, 2015).

By half-life is commonly meant how long it takes for the measured level to halve. Read a high half-life as slow decline. One may read the solubility as the dissolved amount per volume that the medium holds. The low end stands for little dissolved substance, the high end for much dissolved substance. As a reminder, the Papp A→B is the apparent permeability from the apical to the basolateral side of a cell layer. Higher therefore signals ready permeation. The Papp B→A is how fast a substance crosses the layer from the basolateral side. For orientation: AUC(0-t) means the area under the concentration-time curve up to a stated or last time point. Higher therefore signals high exposure. The Cmax is the peak of the concentration-time curve. By bioavailability is commonly meant dose-corrected exposure relative to a reference, in per cent. Broadly, the Vd is the apparent volume that relates the amount in the body to the concentration in plasma or blood. A higher Vd goes with wide distribution into tissue. One may read the clearance as the volume of plasma or blood freed of the substance per unit of time. Read a low clearance as inefficient removal.

As to `CS(=O)(=O)Nc1ccc(-c2coc3cc(OCc4cccc(C(=O)O)c4)ccc3c2=O)cc1` [Compound 1], the IC50 in data set [1] was 29 nM. In addition, the “reduction of cocaine-seeking behavior” value in [2] is “demonstrated activity in the reduction of cocaine-seeking behavior”.
In turn, `CCOC(=O)N1CCN(Cc2nc3c(c(=O)n(C)c(=O)n3C)n2Cc2cccc(C)c2)CC1` [Compound 5, ethyl 4-((1,3-dimethyl-7-(3-methylbenzyl)-2,6-dioxo-2,3,6,7-tetrahydro-1H-purin-8-yl)methyl)piperazine-1-carboxylate] showed a half-life at 1 µM in [3] of 5 min. In addition, the IC50 in data set [4] was 40 ± 5 nM; in [5], greater than 57000 nM; in data set [6], 2400 nM; in data set [7], 84 nM. Moreover, the solubility in data set [8] is greater than 62 µg/mL.
`CCOC(=O)N1CCN(c2nc3c(c(=O)n(C)c(=O)n3C)n2Cc2cccc(C)c2)CC1` [Compound 11, Ethyl 4-(1,3-Dimethyl-7-(3-methylbenzyl)-2,6-dioxo-2,3,6,7-tetrahydro-1H-purin-8-yl)piperazine-1-carboxylate] had a half-life at 1 µM in data set [3] of 2 min. In addition, the IC50 in data set [4] is 570 ± 156 nM.
In data set [3], `CNC(=O)c1ccc(Oc2nc3c(c(=O)n(C)c(=O)n3C)n2Cc2cccc(C)c2)cc1` [Compound 12, 4-((1,3-dimethyl-7-(3-methylbenzyl)-2,6-dioxo-2,3,6,7-tetrahydro-1H-purin-8-yl)oxy)-N-methylbenzamide] gave a half-life at 1 µM of 8 min. Moreover, the IC50 in data set [4] is 57 nM; in [5], greater than 57000 nM; in data set [6], 6100 nM. For the same compound, in [8], the solubility was less than 1 µg/mL.
The compound `Cc1cccc(Cn2c(OC3CCNCC3)nc3c2c(=O)n(C)c(=O)n3C)c1` [Compound 14, 1,3-dimethyl-7-(3-methylbenzyl)-8-(piperidin-4-yloxy)-1H-purine-2,6(3H,7H)-dione] yielded a half-life at 1 µM in data set [3] of 21 min. In data set [4], the IC50 turned out to be 13700 ± 4900 nM.
For the compound `Cc1cccc(Cn2c(OC3CCN(c4nccc(C)n4)CC3)nc3c2c(=O)n(C)c(=O)n3C)c1` [Compound 19, 1,3-dimethyl-7-(3-methylbenzyl)-8-((1-(4-methylpyrimidin-2-yl)-piperidin-4-yl)oxy)-1H-purine-2,6(3H,7H)-dione], the half-life at 1 µM in data set [3] is 1 min. In [4], this compound had an IC50 of 19200 ± 3300 nM.
For the compound `Cn1c(=O)c2c(nc(OC3CCN(C(=O)C4CC4)CC3)n2Cc2ccccc2)n(C)c1=O` [Compound 21, 7-benzyl-8-((1-(cyclopropanecarbonyl)piperidin-4-yl)oxy)-1,3-dimethyl-1H-purine-2,6(3H,7H)-dione], the half-life at 1 µM in data set [3] is greater than 30 min. In data set [4], the IC50 came out at 214 ± 28 nM.
`Cn1c(=O)c2[nH]c(OC3CCN(C(=O)C4CC4)CC3)nc2n(C)c1=O` [Compound 22, 8-((1-(cyclopropanecarbonyl)piperidin-4-yl)oxy)-1,3-dimethyl-1H-purine-2,6(3H,7H)-dione] displayed a half-life at 1 µM in data set [3] greater than 30 min. Moreover, the IC50 in [4] is 25100 ± 5900 nM.
In [3], `Cc1cccc(Cn2c(OC3CCN(C(=O)C4CC4)CC3)nc3c2c(=O)n(C)c(=O)n3C)c1` [Compound 34, 8-((1-(cyclopropanecarbonyl)piperidin-4-yl)oxy)-1,3-dimethyl-7-(3-methylbenzyl)-1H-purine-2,6(3H,7H)-dione] gave a half-life at 1 µM of 4 min. The IC50 was 84 ± 14 nM in data set [4], greater than 57000 nM in data set [5] and 15300 nM in [6].
Take `Cn1c(=O)c2c(nc(OC3CCN(C(=O)C4CC4)CC3)n2CCc2ccccc2)n(C)c1=O` [Compound 39, 8-((1-(cyclopropanecarbonyl)piperidin-4-yl)oxy)-1,3-dimethyl-7-phenethyl-1H-purine-2,6(3H,7H)-dione]: the half-life at 1 µM in data set [3] was 14 min. Further, the IC50 in data set [4] was found to be 629 ± 179 nM.
The matching figures for `Cn1c(=O)c2c(nc(OC3CCN(C(=O)C4CC4)CC3)n2CCC2CCCCC2)n(C)c1=O` [Compound 54, 7-(2-cyclohexylethyl)-8-((1-(cyclopropanecarbonyl)piperidin-4-yl)oxy)-1,3-dimethyl-1H-purine-2,6(3H,7H)-dione]: 1 min and 30 ± 12 nM.
`CC(C)CCn1c(CN2CCN(C(=O)C3CC3)CC2)nc2c1c(=O)n(C)c(=O)n2C` [Compound 64, 8-((4-(cyclopropanecarbonyl)piperazin-1-yl)methyl)-7-isopentyl-1,3-dimethyl-1H-purine-2,6(3H,7H)-dione] returned a half-life at 1 µM in data set [3] greater than 30 min. Further, in data set [9], the “off-target kinase activity (KINOMEscan)” value is given as “no significant hits”. Moreover, in data set [10], the “human liver microsomal stability (HLM)” value is given as greater than 120 min. Besides, the IC50 in data set [5] is greater than 57000 nM. Further, the “multipoint rat liver microsomal stability” value in [11] came out at 84 min. The same compound gave a plasma protein binding in data set [12] of 68.6 % bound. In data set [13], the “in vitro stability in CD1 mouse plasma” value is greater than 60 min. In data set [14], the half-life was found to be 17 min. Besides, in data set [15], the Papp A→B amounted to 19.3 ×10⁻⁶ cm/s and the Papp B→A turned out to be 19.6 ×10⁻⁶ cm/s. Besides, in data set [16] (brain, po, 10 mg/kg), the AUC(0-t) was determined as 261 ng·h/mL, the peak level (Cmax) was 1130 ng/mL and the half-life is 24 min. Also, in data set [16] (liver, po, 10 mg/kg), the AUC(0-t) stood at 1880 ng·h/mL, the Cmax was determined as 2690 ng/mL and the half-life was 24 min. The half-life in data set [16] (plasma, intravenous, oral, intraperitoneal) was less than 60 min. Moreover, in data set [16] (plasma, ip, 30 mg/kg), the AUC(0-t) was found to be 5670 ng·h/mL, the Cmax was 8080 ng/mL, the bioavailability is 100% and the half-life is 42 min. In data set [16] (plasma, iv, 2 mg/kg), this compound had an AUC(0-t) of 332 ng·h/mL, a C0 of 2070 ng/mL, a Vd of 1.8 L/kg and a clearance of 98 mL/min/kg. The half-life in [16] (plasma, iv, 2 mg/kg) was 30 min. Also, in data set [16] (plasma, po, 10 mg/kg), the AUC(0-t) came to 484 ng·h/mL, the concentration peaked (Cmax) at 696 ng/mL, the bioavailability worked out at 29% and the half-life was 24 min. For the same compound, the gpcrMAX off-target activity result in data set [17] is on record as “very little activity in either agonist or antagonist mode”.
